Tested on: Htt exon1-Q103-egfp
Experiment: Pulse-chase assay of Htt exon1-Q103-egfp turnover
Assay type: cell-based
Conditions: HEK293 cells, 4 μM CQ
Protocol: HEK293 cells at 90% confluence on 100 mm plates coated with poly-D-lysine (0.1 μg/μl) were transfected for 4 hr in Opti-MEM medium before replacement of the medium with MEM supplemented with 10% v/v FBS. After another 5 hr incubation, cells were trypsinized and replated in two wells of a 6-well plate, then incubated for another 14 hr at 37° C. The medium was replaced with methionine-free MEM medium supplemented with 5% v/v FBS, and cells incubated for 1.5 hr with 4 μM of CQ or DMSO vehicle added during the last 30 min of incubation. One mCi of Smethionine (Amersham Biosciences, Piscataway, N.J.) in 12 ml of methionine-free MEM was prepared as a pulse stock medium. Cells were pulsed for 10 min by replacing the medium with 1 ml of the pulse stock medium. At different time points, cells were washed twice with ice-cold PBS and lysed in 1 ml of IP lysis buffer (50 mM Tris-HCl, pH 7.5, 150 mM NaCl, 1% v/v NP-40, 0.5% v/v sodium deoxycholate, 1 tab mini-complete protease inhibitor/10 ml buffer). Cells were harvested by scraping, placed in 1.5 ml microcentrifuge tube, and lysed with constant agitation at 4° C. for at least 30 min before immunoprecipitation of the Htt^exon1-Q103-egfp protein using anti-polyglutamine antibody and protein G agarose beads (Roche, Indianapolis, Ind., USA). Assays were performed at least three times. […]

`Oc1c(I)cc(Cl)c2cccnc12` [CQ, 5-chloro-7-iodo-8-hydroxy-quinoline] was tested, and the “rates of Q103-egfp degradation in the presence of CQ” value was “No significant differences”.

Reference: patent US20070270462A1, “8-hydroxyquinoline compounds for treating a polyglutamine (polyQ)-expansion disease” (priority 2005, published 2007)
